PMC10701869, “Anti-Xanthine Oxidase 5′-Hydroxyhericenes A–D from the Edible Mushroom Hericium erinaceus and Structure Revision of 3-[2,3-Dihydroxy-4-(hydroxymethyl)tetrahydrofuran-1-yl]-pyridine-4,5-diol” (ACS Omega, 2023)
Where a name gives a salt, the structure may show the parent alone.

Legend:
[1] = tested on: T47D; experiment: cells; design: species or system MDA-MB-231, MRC-5; MTT cell viability, growth inhibition versus DMSO control, n = 4; conditions: Homo sapiens, 48 h
Protocol: (§1) Cytotoxicity assays were evaluated against the following cell lines: T-47D ATCC, HTB-133 (hormone-dependent breast cancer), and MRC-5 ATCC, CCL171 (normal embryonic lung) from the American Type Culture Collection (ATCC, Manassas, VA) as well as MDA-MB-231 ((hormone-independent breast cancer) from M.D. Anderson Cancer Center, Houston, TX). […] The cutoff concentration is 50 μg mL^–1. Cell viability was determined using the MTT assay. […] The selectivity index between the T47D cancer cell line and the MRC-5 normal cell line is 13.5. […] In addition, this compound was previously reported to be noncytotoxic to MCF-7 cancer cell line.[36] This means that the growth inhibitory effect of hericerin depends on the types of breast cancer cell. T47D, MDA-MB-231, and MCF-7 are popular models in breast cancer studies. The T47D and MCF-7 are hormone-dependent breast cancer cells, but MDA-MB-231 is a hormone-independent breast cancer cell. […] Thus, hericerin (13) may be a good candidate to develop an anticancer agent against progesterone-sensitive breast cancer cells. Moreover, hericerin was reported to inhibit the growth of A549, SK-OV-3, SK-MEL-2, HCT-15, and HL-60 cancer cell lines.[10],[38] To determine the possible mechanism, we performed an apoptosis assay. First, T47D and MDA-MB-231 breast cancer cells were exposed to compound 13 for 48 h, and the abundance of two apoptotic markers, namely, PARP and procaspase 3, was determined by Western blot.

[2] = in vitro; design: species or system T47D, MDA-MB-231; MTT cell viability, growth inhibition versus DMSO control, n = 4; conditions: human, mrc-5 cells; read-out: MRC-5 IC50
Protocol: as §1, with “To determine the possible mechanism, we performed an apoptosis assay.” left out

[3] = biological target: T1, xanthine oxidase (Bos taurus, UniProt P80457); experiment: biochemical; design: xanthine oxidase inhibition (IXO assay), dose-response, n = 3
T1 construct: gene XDH
Protocol: The assays were evaluated against DPPH (diphenyl picrylhydracyl radical), XXO (reactive oxygen species generated by xanthine oxidase), and IXO (inhibition of xanthine oxidase). DMSO was used as a solvent and a negative control. […] The cutoff concentration is 100 μg mL^–1 for DPPH and 200 μg mL^–1 for XXO and IXO.

[4] = tested on: MDA-MB-231; experiment: cells; design: species or system T47D, MRC-5; MTT cell viability, growth inhibition versus DMSO control, n = 4; conditions: Homo sapiens, MDA-MB-231, 48 h
Protocol: as §1, with “To determine the possible mechanism, we performed an apoptosis assay.” left out

T1 sequence (P80457 2-1332): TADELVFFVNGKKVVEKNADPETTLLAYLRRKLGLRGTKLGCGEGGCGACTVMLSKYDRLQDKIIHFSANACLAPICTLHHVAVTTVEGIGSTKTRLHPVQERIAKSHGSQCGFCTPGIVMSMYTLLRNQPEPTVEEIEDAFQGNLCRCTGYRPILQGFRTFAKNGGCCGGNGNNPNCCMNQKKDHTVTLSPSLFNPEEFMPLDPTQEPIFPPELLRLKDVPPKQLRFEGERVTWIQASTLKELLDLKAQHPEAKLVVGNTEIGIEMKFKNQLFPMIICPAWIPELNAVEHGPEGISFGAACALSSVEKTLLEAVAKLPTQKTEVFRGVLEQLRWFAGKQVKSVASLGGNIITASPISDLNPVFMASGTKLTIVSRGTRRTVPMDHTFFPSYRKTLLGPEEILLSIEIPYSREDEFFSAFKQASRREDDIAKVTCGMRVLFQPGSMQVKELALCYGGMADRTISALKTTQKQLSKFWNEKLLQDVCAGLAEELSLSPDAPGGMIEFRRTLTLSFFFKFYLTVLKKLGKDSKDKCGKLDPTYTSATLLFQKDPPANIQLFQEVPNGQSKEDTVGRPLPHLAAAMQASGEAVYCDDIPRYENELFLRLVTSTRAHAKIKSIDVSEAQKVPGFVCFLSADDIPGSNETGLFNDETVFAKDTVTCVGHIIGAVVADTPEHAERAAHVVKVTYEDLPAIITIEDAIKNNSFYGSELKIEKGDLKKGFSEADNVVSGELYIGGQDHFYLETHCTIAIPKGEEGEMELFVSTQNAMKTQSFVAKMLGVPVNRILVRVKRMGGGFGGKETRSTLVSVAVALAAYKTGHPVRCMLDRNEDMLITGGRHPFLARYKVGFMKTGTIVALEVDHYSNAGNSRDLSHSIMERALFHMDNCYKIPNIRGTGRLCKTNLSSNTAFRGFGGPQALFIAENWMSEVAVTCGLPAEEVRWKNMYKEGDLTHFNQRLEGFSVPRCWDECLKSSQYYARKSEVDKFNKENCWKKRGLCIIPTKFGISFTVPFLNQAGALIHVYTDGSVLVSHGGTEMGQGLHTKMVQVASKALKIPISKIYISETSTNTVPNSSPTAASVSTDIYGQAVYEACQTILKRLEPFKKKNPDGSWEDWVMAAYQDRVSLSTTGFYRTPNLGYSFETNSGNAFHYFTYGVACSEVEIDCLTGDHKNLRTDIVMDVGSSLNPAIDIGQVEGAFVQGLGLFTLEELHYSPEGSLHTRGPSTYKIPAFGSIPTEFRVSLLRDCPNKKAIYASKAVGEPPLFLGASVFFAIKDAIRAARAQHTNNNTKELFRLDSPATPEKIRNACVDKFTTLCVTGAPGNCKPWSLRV

| SMILES | IC50 [1] | CC50 at 48 h [2] | inhibition at 200 µg/mL [3] | inhibition at 50 µg/mL [4] | inhibition at 50 µg/mL [1] | IC50 [4] |
| --- | --- | --- | --- | --- | --- | --- |
| COc1cccc2c1C(=O)c1c(O)c3c(c(O)c1C2=O)C[C@@](O)(C(=O)CO)C[C@@H]3O[C@H]1C[C@H](N)[C@H](O)[C@H](C)O1 [Doxorubicin·HCl, Doxorubicin hydrochloride] | 0.69 ± 0.03 µM | 2.75 ± 0.21 µM |  |  |  |  |
| Nc1ncnc2c1ncn2[C@@H]1O[C@H](CO)[C@@H](O)[C@H]1O [compound 6, adenosine] |  |  | 27 ± 7.9% | 2.5 ± 5% | 2.3 ± 2.9% |  |
| COc1cc2c(c(O)c1C/C=C(\C)CCC=C(C)C)C(=O)N(CCc1ccccc1)C2 [compound 13, hericerin] | 5.9 ± 1.6 µM | 79.6 ± 13.7 µM | 43.3 ± 5% |  |  | 57.5 ± 5.4 µM |
